Biological target: T1, GSK-3β (Homo sapiens, UniProt P49841)
T1 construct: gene GSK3B
Assay: biochemical
Conditions: not given

T1 sequence (P49841 whole entry): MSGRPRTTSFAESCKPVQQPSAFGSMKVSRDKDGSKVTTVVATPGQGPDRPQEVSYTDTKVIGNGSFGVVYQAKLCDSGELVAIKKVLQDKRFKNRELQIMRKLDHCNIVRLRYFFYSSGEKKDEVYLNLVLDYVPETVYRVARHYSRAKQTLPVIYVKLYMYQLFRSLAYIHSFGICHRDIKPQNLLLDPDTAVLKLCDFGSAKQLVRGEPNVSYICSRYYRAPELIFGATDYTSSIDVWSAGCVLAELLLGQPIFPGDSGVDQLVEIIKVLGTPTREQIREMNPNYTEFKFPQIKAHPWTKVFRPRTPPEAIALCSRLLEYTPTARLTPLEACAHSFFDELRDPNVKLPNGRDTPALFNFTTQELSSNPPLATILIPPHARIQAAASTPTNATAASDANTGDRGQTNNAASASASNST

SMILES | IC50 [µM]
O[C@@H]1CC=C2CCN3Cc4cc5c(cc4[C@H]1[C@@H]23)OCO5 [compound 14, Caranine] | 30.8
COc1cc2c(cc1O)C1C(CC=C3CCN(C)C31)OC2=O (stereo not drawn) [compound 23, 9-O-Demethylhomolycorine] | 30
CN1CCC2=CCC3OC(=O)c4cc5c(cc4C3C21)OCO5 (stereo not drawn) [compound 24, Masonine] | 27.8

Biological target: T1, GSK-3β
Assay: Kinase-Glo luminescent kinase assay, single concentration […]
Type: biochemical
Conditions: read-out: % of Inhibition

SMILES | inhibition at 50 µM [%]
CO[C@@H]1C=C[C@@]23c4cc5c(cc4CN(C[C@@H]2O)[C@H]3C1)OCO5 [compound 3, Haemanthamine] | 52.4
COc1cc2c(cc1OC)[C@H]1[C@H]3C(=CC[C@H]1OC2=O)CCN3C [compound 22, Homolycorine] | 54.4
CCOC1OC2CC=C3CCN(C)C3C2c2cc(OC)c(OC)cc21 (stereo not drawn) [compound 26, O-Ethyllycorenine] | 57.7
CN1CCC2=CCC3OC(O)c4cc5c(cc4C3C21)OCO5 (stereo not drawn) [compound 27, Oduline] | 57.7

Biological target: T1, GSK-3β
Assay: biochemical
Set-up: Kinase-Glo luminescent ATP-consumption assay, human recombinant GSK-3beta, GSM peptide substrate, 1 uM ATP, 30 min 37 C
Conditions: not given
Remark: another data set of the same source
Experimental: GSK-3β activity and inhibition were studied according to the luminescent method of Baki et al. using a Kinase-Glo reagent kit. The reaction was performed in 96-well white plates. Each well contained 10 µL of test compound (dissolved in DMSO) at 1 mM concentration and diluted in advance in an assay buffer (pH 7.5) containing 50 mM HEPES, 1 mM EDTA, 1 mM EGTA, and 15 mM magnesium acetate, to the desired concentration, 10 µL of ATP (1 µM final concentration), 10 µL of 100 µM GSM and 10 µL of GSK-3β (20 ng). Ten microliters of either buffer or SB-415286 solution (5 µM final concentration) was added instead of test compound solution in order to obtain the positive (maximum activity) and negative control (total inhibition), respectively. […] The mix was left to react at 37 °C for 30 min. Then the enzymatic reactions were stopped with 40 µL of Kinase-Glo reagent. Glow-type luminescence was recorded after 10 min. The activity is proportional to the difference of the total and consumed ATP. The inhibition activities were calculated on the basis of maximal activity, measured in the absence of inhibitor, and the maximal inhibition was measured in the presence of the reference compound. The IC50 values were calculated using the GraphPad Prism 4.0 program (GraphPad Software Inc., CA, USA). Kinase-Glo Kit was obtained from Promega (Promega Biotech Iberica, S.L., Madrid, Spain), and human recombinant GSK-3β and GSM substrate mimicking Glycogen Muscle Synthase from Merck Millipore (Darmstadt, Germany). Adenosine 5-triphosphate (ATP) disodium salt hydrate, ammonium acetate, ammonium hydroxide, 4-(2-hydroxyethyl)piperazine-1-ethanesulfonic acid (HEPES), ethylene glycol-bis(-aminoethylether)-N,N,N,N-tetraacetic acid tetrasodium salt (EGTA), ethylenediaminetetraacetic acid (EDTA), dimethyl sulfoxide (DMSO), magnesium acetate tetrahydrate, formic acid, and 3-[(3-chloro-4-hydroxyphenyl)amino]-4-(2-nitrophenyl)-1H-pyrrol-2,5-dione were purchased from Sigma-Aldrich (St. Louis, MO, USA). The GSK-3β selective inhibitor SB-415286 ([3-(3-chloro-4-hydroxyphenylamino)-4-(2-nitrophenyl)-1H-pyrrole-2,5-dione]) was purchased from Selleck Chemicals (Houston, TX, USA). Ultrapure water was obtained using a Purite LTD water purification system (Thame, UK). The experiments were carried out using a Victor X3 multimode plate reader (Perkin Elmer, MA, USA). The inhibitory activity of the compounds was first screened at a concentration of 50 µM (Table 1); a synthetic arylindolemaleimide derivative, SB-415286, was used as a positive standard.

SMILES | inhibition at 50 µM [%]
CC(=O)O[C@H]1[C@H]2c3cc4c(cc3CN3CCC(=C[C@@H]1O)[C@H]23)OCO4 [1-O-Acetyllycorine (16)] | 49.9 ± 1.9
COc1c2c(cc3c1OCO3)[C@]13C=C[C@H](OC)C[C@H]1N(C2)C[C@@H]3O [Ambelline (7)] | 38 ± 0.8
COc1c2c(cc3c1OCO3)[C@@]13CCN(C2)[C@@H]1C[C@@H](O)[C@@H]1O[C@@H]13 [Crinamidine (10)] | 32.1 ± 7.9
O[C@H]1C=C[C@@]23CCN(Cc4cc5c(cc42)OCO5)[C@@H]3C1 [Crinine (8)] | 39.6 ± 5.4
COc1cc2c(cc1OC)[C@@H]1[C@H](O)[C@@H](OC)C=C3CCN(C2)[C@H]31 [Galanthine (17)] | 26.4 ± 7.7
CO[C@@H]1C=C[C@@]23c4cc5c(cc4[C@H](O)N(C[C@@H]2O)[C@H]3C1)OCO5 [Haemanthidine (4)] | 33 ± 2.2
O[C@H]1C=C[C@@]23c4cc5c(cc4CN(C[C@@H]2O)[C@H]3C1)OCO5 [Hamayne (5)] | 33.9 ± 0.1
CN1CCC2=C[C@H](O)[C@H]3OC(=O)c4cc5c(cc4[C@H]3[C@@H]21)OCO5 [Hippeastrine (21)] | 10.7 ± 2.5
COc1cc2c(cc1OC)[C@@H](O)O[C@@H]1CC=C3CCN(C)[C@H]3[C@H]21 [Lycorenine (25)] | 47.6 ± 3.5
O[C@H]1[C@H]2c3cc4c(cc3CN3CCC(=C[C@@H]1O)[C@H]23)OCO4 [Lycorine (15)] | 32.9 ± 0.2
COc1ccc2c3c1O[C@H]1CC(=O)C=C[C@@]31CCN(C)C2 [Narwedine (12)] | 37.7 ± 0.3
COc1cc2c(cc1O)CN1CCC3=CC[C@@H](O)[C@@H]2[C@@H]31 [Norpluviine (19)] | 45 ± 4.3
CO[C@@H]1C=C[C@@]23c4cc5c(cc4CO[C@]2(O)CN(C)[C@H]3C1)OCO5 [Tazettine (20)] | 49.2 ± 0.3
COc1c2c(cc3c1OCO3)[C@@]13CCN(C2)[C@@H]1C[C@@H](OC)[C@@H]1O[C@@H]13 [Undulatine (9)] | 43.3 ± 4
O[C@@H]1CC=C2CCN3Cc4cc5c(cc4[C@H]1[C@@H]23)OCO5 [compound 14, Caranine] | 61.8 ± 9.2
COc1cc2c(cc1O)C1C(CC=C3CCN(C)C31)OC2=O (stereo not drawn) [compound 23, 9-O-Demethylhomolycorine] | 63.6 ± 1.3
CN1CCC2=CCC3OC(=O)c4cc5c(cc4C3C21)OCO5 (stereo not drawn) [compound 24, Masonine] | 66 ± 4

Reference: paper PMC6017564, “Amaryllidaceae Alkaloids as Potential Glycogen Synthase Kinase-3β Inhibitors” (Molecules : A Journal of Synthetic Chemistry and Natural …, 2018)
